One assay relates to HT-29 cells. Nature of the assay: Antiproliferative assay, HT-29. Format: cell-based. The settings on record: Homo sapiens; HT-29 colon cancer cell line; read-out: Antiproliferative activity IC50 ± SEM, HT-29. The method, then:
(§1) 4.2.2. Assay for antiproliferative effect
(§2) To explore the antiproliferative potential of compounds propidium iodide fluorescence assay was performed using different cell lines such as Panc-1 (pancreas cancer cell line), MCF-7 (breast cancer cell line), HT-29 (colon cancer cell line) and A-549 (epithelial cancer cell line), respectively. To calculate the total nuclear DNA, a fluorescent dye (propidium iodide, PI) is used which can attach to the DNA, thus offering a quick and precise technique. PI cannot pass through the cell membrane and its signal intensity can be considered as directly proportional to quantity of cellular DNA. Cells whose cell membranes are damaged or have changed permeability are counted as dead ones. The assay was performed by seeding the cells of different cell lines at a density of 3000-7500 cells/well (in200μl medium) in culture plates followed by incubation for 24h at 37 °C in humidified 5%CO2/95% air atmospheric conditions. The medium was removed; the compounds were added to the plates at 10 μM concentrations (in 0.1% DMSO) in triplicates, followed by incubation for 48h. DMSO (0.1%) was used as control. After incubation, medium was removed followed by the addition of PI (25 μl, 50μg/mL in water/medium) to each well of the plates. At - 80 °C, the plates were allowed to freeze for 24 h, followed by thawing at 25 °C. A fluorometer (Polar-Star BMG Tech) was used to record the readings at excitation and emission wavelengths of 530 and 620 nm for each well. The percentage cytotoxicity of compounds was calculated using […]
(§3) Where ATC= Absorbance of treated cells and AC= Absorbance of control. Erlotinib was used as positive control in the assay.

Another assay relates to MCF-7 cells. Nature of the assay: Antiproliferative assay, MCF-7. The settings on record: Homo sapiens, MCF7; MCF-7 breast cancer cell line; read-out: Antiproliferative activity IC50 ± SEM, MCF-7. Format: cell-based. The procedure:
as §1, §2, §3

Assay [1] relates to four human cancer cell lines (A-549, MCF-7, Panc-1, HT-29). Description: Antiproliferative assay, average over four cancer cell lines (GI50). Format: cell-based. The settings on record: for IC50: average of IC50 against A-549, MCF-7, Panc-1, HT-29. The procedure: See Supplementary Appendix SA1 for more details.
as §1
To explore the antiproliferative potential of compounds propidium iodide fluorescence assay was performed using different cell lines such as Panc-1 (pancreas cancer cell line), MCF-7 (breast […]
respectively. To calculate the total nuclear DNA, a fluorescent dye (propidium iodide, PI) is used which can attach to the DNA, thus offering a quick and precise technique. PI cannot pass through the cell membrane and its signal intensity can be considered as directly proportional to quantity of cellular DNA. Cells whose cell membranes are damaged or have changed permeability are counted as dead ones. The assay was performed by seeding the cells of different cell lines at a density of […]
The medium was removed; the compounds were added to the plates at 10 μM concentrations (in 0.1% DMSO) in triplicates, followed by incubation for 48h. DMSO (0.1%) was used as control. After incubation, medium was removed followed by the addition of PI (25 μl, 50μg/mL in water/medium) to each well of the plates. At - 80 °C, the plates were allowed to freeze for 24 h, followed by thawing at 25 °C. A fluorometer (Polar-Star BMG Tech) was used to record the readings at excitation and emission wavelengths of 530 and 620 nm for each well. The percentage cytotoxicity of compounds was calculated using […]
Where ATC= Absorbance of treated cells and AC= Absorbance of control. […]
positive control in the assay.

Another assay deals with A-549 cells. Nature of the assay: Antiproliferative assay, A-549. Format: cell-based. The settings on record: Homo sapiens, A549; A-549 lung cancer cell line; read-out: Antiproliferative activity IC50 ± SEM, A-549. The procedure: as §1, §2, §3
The next assay addresses T1, eNOS (Bos taurus, UniProt P29473).
T1 construct: purchased Cayman Chemical (Ann Arbor, USA)
Nature of the assay: NOS inhibition assay (L-citrulline, fluorometric detection), eNOS. Conditions: for inhibition at 10 µM / Inhibition (%) eNOS: compound at 10 µM. The format is biochemical, bovine. The procedure:
The investigated compounds were tested at 1 µM against the iNOS and 10 µM against the eNOS to determine their isoform selectivity. Because of its critical role in cardiovasculature, inhibiting the constitutive enzyme eNOS should be avoided.
Refer to Supplementary Appendix SA1 for more details.
4.2.4. NOS inhibition assay
Recombinant human iNOS was purchased from Enzo Life Sciences, Inc. (New York, USA).
Recombinant bovine eNOS was purchased from Cayman Chemical (Ann Arbor, USA). To measure iNOS activity, 10 μL of enzyme stock solution were added to 80 μL of 2-[4-(2-hydroxyethyl) piperazin-1-yl]ethanesulfonic acid (HEPES) buffer pH = 7.4, 100 mM, containing 0.1 mM CaCl2, 1 mM D,L-dithiothreitol (DTT), 0.5 mg/mL BSA, 10 μM flavin mononucleotide (FMN), 10 μM flavin adenine dinucleotide (FAD), 30 μM tetrahydrobiopterin (BH4), 10 μg/mL calmodulin (CaM), 10 μM L-Arg. For the eNOS activity evaluation, 25 μL of the enzyme stock solution were added to 65 μL of HEPES buffer containing 2 mM CaCl2 and the same cofactors […]
μM) were added to the enzyme assay solution, followed by pre -incubation of 15 min at 37 ◦C.
Each reaction was initiated by the addition of 10 μL of NADPH 7.5 mM, carried out at 37 ◦C for 30 min, and stopped by adding 500 μL of ice -cold CH3CN. The mixture was brought to dryness under vacuum and eventually stored at – 20 ◦C, before the HPLC analysis. […]

Take `CCc1c2cc(Cl)ccc2n2c(C)c(C(=O)OCc3ccccc3)[nH]c(=O)c12` [Compound 5, benzyl 8-chloro-10-ethyl-4-methyl-1-oxo-1,2-dihydropyrazino [1,2-a]indole-3-carboxylate]: the IC50 in the assay with HT-29 cells is 32 ± 3 nM; with MCF-7 cells, 34 ± 3 nM; in assay [1] (Homo sapiens) it was 32 nM; in the assay on A-549 cells it was 31 ± 3 nM. For the same compound, testing at 10 µM on eNOS gave an inhibition of 49 ± 2%.

`CCc1c2cc(Cl)ccc2n2c(C)c(C(=O)NCc3ccccc3)[nH]c(=O)c12` [Compound 7, N-benzyl-8-chloro-10-ethyl-4-methyl-1-oxo-1,2-dihydropyrazino [1,2-a]indole-3-carboxamide]: the IC50 was determined as 29 ± 2 nM in the assay with HT-29 cells, 30 ± 3 nM in the assay with MCF-7 cells, 29 nM in assay [1] (Homo sapiens) and 28 ± 2 nM in the assay with A-549 cells. In assay [1], the “Fold more effective than compound 11 (GI50)” value is “at least 1.4 fold”. In addition, the “Inhibition (%) eNOS” value at eNOS is reported as “moderate inhibitory action”. Testing at 10 µM against eNOS gave an inhibition of 32 ± 2%.

Turning to `CCc1c2cc(Cl)ccc2n2cc(-c3ccccc3)[nH]c(=O)c12` [Compound 16, 8-Chloro-10-ethyl-3-phenylpyrazino [1,2-a]indol-1(2H)-one], the 50% inhibitory concentration (IC50) is 25 ± 2 nM in the assay with HT-29 cells; 28 ± 2 nM in the assay on MCF-7 cells; 28 nM in assay [1] (Homo sapiens); 26 nM in assay [1]; 25 ± 2 nM in the assay on A-549 cells; above 50000 nM at eNOS. For the same compound, in assay [1], the “Fold more effective than compound 11 (GI50)” value is given as “at least 1.4 fold”. Moreover, the “IC50 eNOS” value against eNOS was “inactive”. Also, on eNOS, the “Inhibition (%) eNOS” value was “completely inactive”.

For `CCc1c2cc(Cl)ccc2n2cc(Cc3ccccc3)n(C)c(=O)c12` [Compound 12, 3-Benzyl-8-chloro-10-ethyl-2-methylpyrazino[1,2-a]indol-1(2H)-one], the IC50 was 25 ± 2 nM in the assay on HT-29 cells; 25 ± 2 nM with MCF-7 cells; 25 nM in assay [1] (Homo sapiens); 24 nM in assay [1]; 23 ± 2 nM in the assay with A-549 cells; above 50000 nM against eNOS. In assay [1] (GI50 24 nM vs Erlotinib […] nM), the “Fold potency relative to Erlotinib (GI50)” value is 1.4 fold. In addition, the “Inhibition (%) eNOS” value at eNOS was “completely inactive”.

By IC50 is commonly meant the concentration that inhibits the measured activity by half. For orientation: inhibition means the percentage by which the read-out fell short of the control.

The record behind these values is article PMC11414412, “Design and synthesis new indole-based aromatase/iNOS inhibitors with apoptotic antiproliferative activity” (Frontiers in Chemistry, 2024).
